Data taken from patent US12275731B2, “Azaindole inhibitors of wild-type and mutant forms of LRRK2” (DANA-FARBER CANCER INSTITUTE, INC., priority 2018, dated 2025).

What was measured:
Assay in all cases: KinomeScan profiling
Type in all cases: binding
EPHA3 = molecular target: T1, EPHA3 (Homo sapiens, UniProt P29320); settings: EPHA3, 1 μM; read-out: % control
T1 sequence (P29320 21-983): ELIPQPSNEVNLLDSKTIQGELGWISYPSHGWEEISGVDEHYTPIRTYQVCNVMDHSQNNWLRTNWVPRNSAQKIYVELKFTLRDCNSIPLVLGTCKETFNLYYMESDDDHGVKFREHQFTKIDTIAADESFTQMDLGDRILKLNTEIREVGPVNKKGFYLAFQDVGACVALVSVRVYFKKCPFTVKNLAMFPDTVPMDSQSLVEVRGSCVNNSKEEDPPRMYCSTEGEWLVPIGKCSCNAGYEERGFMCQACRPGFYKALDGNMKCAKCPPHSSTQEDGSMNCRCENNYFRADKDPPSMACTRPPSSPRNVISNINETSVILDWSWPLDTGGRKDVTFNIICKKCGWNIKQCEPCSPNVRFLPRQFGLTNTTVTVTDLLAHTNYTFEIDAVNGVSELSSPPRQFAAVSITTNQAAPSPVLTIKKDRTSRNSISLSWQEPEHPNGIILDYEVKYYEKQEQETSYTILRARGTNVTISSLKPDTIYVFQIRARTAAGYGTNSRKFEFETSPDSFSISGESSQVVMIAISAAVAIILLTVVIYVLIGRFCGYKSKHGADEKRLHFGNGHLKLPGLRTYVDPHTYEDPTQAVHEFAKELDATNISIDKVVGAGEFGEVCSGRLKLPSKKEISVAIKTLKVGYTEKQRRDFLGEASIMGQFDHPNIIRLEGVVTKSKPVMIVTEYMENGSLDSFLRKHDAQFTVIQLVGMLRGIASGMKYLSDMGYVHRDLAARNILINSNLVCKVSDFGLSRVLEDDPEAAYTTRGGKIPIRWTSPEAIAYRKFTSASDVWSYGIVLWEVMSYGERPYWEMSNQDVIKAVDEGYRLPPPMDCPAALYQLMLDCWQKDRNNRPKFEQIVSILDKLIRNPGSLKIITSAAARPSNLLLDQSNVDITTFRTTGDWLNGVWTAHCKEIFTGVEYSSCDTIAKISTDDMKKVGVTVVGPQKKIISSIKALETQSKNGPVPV
Procedure, shortened: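 Luminescence (RLU) was converted to percent of control, with DMSO set as 100% and a reference compound as 0%. Test compounds were run at 1 μM against 468 kinases. Kinases showing below 35% of control were scored as bound.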

IKK-alpha = molecular target: T2, IKK-alpha (Homo sapiens, UniProt O15111); settings: read-out: % control
T2 sequence (O15111 1-745): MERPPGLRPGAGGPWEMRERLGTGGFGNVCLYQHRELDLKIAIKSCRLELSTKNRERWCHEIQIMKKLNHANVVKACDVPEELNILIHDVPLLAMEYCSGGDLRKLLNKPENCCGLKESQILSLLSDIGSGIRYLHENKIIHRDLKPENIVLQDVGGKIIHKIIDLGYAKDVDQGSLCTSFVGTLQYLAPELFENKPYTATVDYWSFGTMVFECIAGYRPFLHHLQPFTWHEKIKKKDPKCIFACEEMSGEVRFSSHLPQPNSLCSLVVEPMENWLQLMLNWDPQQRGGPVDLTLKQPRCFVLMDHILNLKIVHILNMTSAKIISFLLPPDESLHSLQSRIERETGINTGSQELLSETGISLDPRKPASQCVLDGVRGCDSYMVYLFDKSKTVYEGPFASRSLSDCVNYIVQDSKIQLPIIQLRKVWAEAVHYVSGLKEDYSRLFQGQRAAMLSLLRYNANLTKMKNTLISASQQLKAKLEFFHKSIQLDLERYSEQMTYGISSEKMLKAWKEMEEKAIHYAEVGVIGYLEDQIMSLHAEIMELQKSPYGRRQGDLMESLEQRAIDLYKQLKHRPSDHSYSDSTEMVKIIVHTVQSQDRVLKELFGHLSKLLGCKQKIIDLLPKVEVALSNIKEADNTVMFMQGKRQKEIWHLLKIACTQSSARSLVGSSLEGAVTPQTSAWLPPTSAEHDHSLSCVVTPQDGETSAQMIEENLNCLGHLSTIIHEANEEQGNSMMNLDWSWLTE
Procedure, shortened: (§1)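 1 μM cpd in DMSO; 468-kinase panel; readout RLU. % ctrl = (cpd − pos ctrl)/(neg ctrl − pos ctrl) ×100. Pos ctrl = 0%, DMSO = 100%. Hit cut-off <35%.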

CHEK1 = molecular target: T3, CHEK1 (Homo sapiens, UniProt O14757); settings: CHEK1, 1 μM; read-out: % control
T3 sequence (O14757 1-476): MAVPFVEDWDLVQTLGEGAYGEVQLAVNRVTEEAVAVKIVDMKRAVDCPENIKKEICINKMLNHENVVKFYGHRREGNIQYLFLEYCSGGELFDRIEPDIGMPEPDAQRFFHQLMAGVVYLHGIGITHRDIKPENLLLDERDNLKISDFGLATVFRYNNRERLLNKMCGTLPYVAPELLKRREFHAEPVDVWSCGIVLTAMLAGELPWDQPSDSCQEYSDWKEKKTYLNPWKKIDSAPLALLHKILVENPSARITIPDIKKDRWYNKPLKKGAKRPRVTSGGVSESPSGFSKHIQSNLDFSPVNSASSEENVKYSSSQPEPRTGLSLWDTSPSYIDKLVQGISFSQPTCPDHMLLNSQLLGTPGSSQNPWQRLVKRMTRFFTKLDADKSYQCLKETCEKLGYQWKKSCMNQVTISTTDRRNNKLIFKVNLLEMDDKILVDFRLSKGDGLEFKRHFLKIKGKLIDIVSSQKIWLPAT
Procedure, shortened: as §1

Row | Structure (SMILES) | remaining binding at 1 µM (EPHA3) [%] | remaining binding at 1 µM (IKK-alpha) [%] | remaining binding at 1 µM (CHEK1) [%]
1 | CNc1c(-c2cnn([C@H]3CCN(C(C)=O)C[C@@H]3F)c2)cnc2[nH]cc(Cl)c12 [Compound 77, 1-((3S,4S)-4-(4-(3-chloro-4-(methylamino)-1H-pyrrolo[2,3-b]pyridin-5-yl)-1H-pyrazol-1-yl)-3-fluoropiperidin-1-yl)ethan-1-one] | 90 | 17 | 89
2 | CNc1c(-c2ccc(C(=O)N3CCC(N4CCOCC4)CC3)cc2)cnc2[nH]cc(Cl)c12 [Compound 96, (4-(3-chloro-4-(methylamino)-1H-pyrrolo[2,3-b]pyridin-5-yl)phenyl)(4-morpholinopiperidin-1-yl)methanone] | 100 | 14 | 84
3 | O=C(c1ccc(-c2cnc3[nH]cc(Cl)c3c2NC2CCCC2)cc1)N1CCC(N2CCOCC2)CC1 [Compound 101, (4-(3-chloro-4-(cyclopentylamino)-1H-pyrrolo[2,3-b]pyridin-5-yl)phenyl)(4-morpholinopiperidin-1-yl)methanone] | 82 | 49 | 83
